{"source": "patent US12384789B2", "about": "“Compounds for treating Huntington's disease” (PTC Therapeutics, Inc., priority 2017, dated 2025)"}
{"tested_on": "Endogenous Huntingtin Protein", "assay": "Endogenous Huntingtin Protein Assay (Meso Scale Discovery ELISA-based electrochemiluminescence)", "type": "cell-based", "details": "MSD electrochemiluminescence, Table 1", "outline": "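MSD electrochemiluminescence sandwich ELISA: MW1 (expanded polyQ) or MAB2166 capture antibody at 1 μg/mL, samples incubated overnight at 4° C. Detection with rabbit monoclonal #5656S then SULFO-TAG anti-rabbit antibody, each 0.25 μg/mL for 1 h at room temperature.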", "units": {"IC50": "nM"}}
{"smiles": "Cc1cn2nc(-c3cc(F)c4cc(N5CC[C@@H](N(C)C)C5)nnc4c3)cc(C)c2n1", "note": "[Compound 89, (3R)-1-[7-(2,8-dimethylimidazo[1,2-b]pyridazin-6-yl)-5-fluorocinnolin-3-yl]-N,N-dimethylpyrrolidin-3-amine]", "IC50": "≤ 100"}
{"smiles": "Cc1cc(-c2cc3c(F)cc(C4=CCCNCC4)cc3nn2)cc2cn(C)nc12", "note": "[Compound 198, 3-(2,7-dimethyl-2H-indazol-5-yl)-5-fluoro-7-(2,3,6,7-tetrahydro-1H-azepin-4-yl)cinnoline]", "IC50": "100 to 500"}
{"smiles": "Cc1cc(-c2ccc3nc(C4CCNCC4)nnc3c2)cc2cn(C)nc12", "note": "[Compound 16, 7-(2,7-dimethyl-2H-indazol-5-yl)-3-(piperidin-4-yl)-1,2,4-benzotriazine]", "IC50": "100 to 500"}
{"smiles": "Cc1cc(-c2cc(F)c3cc(C4CCNCC4)nnc3c2)cc2cn(C)nc12", "note": "[Compound 73, 7-(2,7-dimethyl-2H-indazol-5-yl)-5-fluoro-3-(piperidin-4-yl)cinnoline]", "IC50": "≤ 100"}
{"smiles": "CCN1CCC(c2cnc3cc(-c4cc(C)c5nc(C)cn5n4)cc(F)c3n2)CC1", "note": "[Compound 110, 6-(2,8-dimethylimidazo[1,2-b]pyridazin-6-yl)-2-(1-ethylpiperidin-4-yl)-8-fluoroquinoxaline]", "IC50": "≤ 100"}
{"smiles": "Cn1cc2cc(-c3cc(F)c4cc(C5CCNCC5)nnc4c3)cc(F)c2n1", "note": "[Compound 96, 5-fluoro-7-(7-fluoro-2-methyl-2H-indazol-5-yl)-3-(piperidin-4-yl)cinnoline]", "IC50": "≤ 100"}
{"smiles": "Cc1cn2nc(-c3cc(F)c4nc(C5CCNCC5)cnc4c3)cc(C)c2n1", "note": "[Compound 82, 6-(2,8-dimethylimidazo[1,2-b]pyridazin-6-yl)-8-fluoro-2-(piperidin-4-yl)quinoxaline]", "IC50": "≤ 100"}
{"smiles": "Cc1cn2nc(-c3cc(F)c4cc(C5=CCNCC5)nnc4c3)cc(C)c2n1", "note": "[Compound 225, 7-(2,8-dimethylimidazo[1,2-b]pyridazin-6-yl)-5-fluoro-3-(1,2,3,6-tetrahydropyridin-4-yl)cinnoline]", "IC50": "≤ 100"}
{"smiles": "Cc1cc(-c2cc3c(F)cc(C4=CCNCC4)cc3nn2)cc2cn(C)nc12", "note": "[Compound 157, 3-(2,7-dimethyl-2H-indazol-5-yl)-5-fluoro-7-(1,2,3,6-tetrahydropyridin-4-yl)cinnoline]", "IC50": "≤ 100"}
{"smiles": "Cc1cc(-c2ccc3nc(C4CCNCC4)ncc3c2)cc2cn(C)nc12", "note": "[Compound 23, 6-(2,7-dimethyl-2H-indazol-5-yl)-2-(piperidin-4-yl)quinazoline]", "IC50": "100 to 500"}
{"smiles": "CCc1cc(-c2cc(F)c3cc(C4CCNCC4)nnc3c2)nn2cc(C)nc12", "note": "[Compound 105, 7-(8-ethyl-2-methylimidazo[1,2-b]pyridazin-6-yl)-5-fluoro-3-(piperidin-4-yl)cinnoline]", "IC50": "≤ 100"}
{"smiles": "Cc1cc(-c2cc3cnc(C4CCNCC4)nc3cc2F)cc2cn(C)nc12", "note": "[Compound 39, 6-(2,7-dimethyl-2H-indazol-5-yl)-7-fluoro-2-(piperidin-4-yl)quinazoline]", "IC50": "1000 to 3000"}
{"smiles": "Cn1cc2cc(-c3cc(F)c4cc(C5CCNCC5)nnc4c3)ccc2n1", "note": "[Compound 95, 5-fluoro-7-(2-methyl-2H-indazol-5-yl)-3-(piperidin-4-yl)cinnoline]", "IC50": "≤ 100"}
{"smiles": "Cc1cn2cc(-c3cc(F)c4cc(C5CCNCC5)nnc4c3)cc(F)c2n1", "note": "[Compound 92, 5-fluoro-7-(8-fluoro-2-methylimidazo[1,2-a]pyridin-6-yl)-3-(piperidin-4-yl)cinnoline]", "IC50": "≤ 100"}
{"smiles": "Cc1cc(-c2cc(F)c3cc(C4CCNCC4)ncc3c2)cc2cn(C)nc12", "note": "[Compound 71, 7-(2,7-dimethyl-2H-indazol-5-yl)-5-fluoro-3-(piperidin-4-yl)isoquinoline]", "IC50": "≤ 100"}
{"smiles": "Cc1cn2nc(-c3ccc4nc(C5CCNCC5)ccc4c3)cc(C)c2n1", "note": "[Compound 19, 6-(2,8-dimethylimidazo[1,2-b]pyridazin-6-yl)-2-(piperidin-4-yl)quinoline]", "IC50": "≤ 100"}
{"smiles": "Cc1nc2c(C)cc(-c3cc(F)c4cc(C5CCNCC5)nnc4c3)nc2[nH]1", "note": "[Compound 126, 7-(2,7-dimethyl-3H-imidazo[4,5-b]pyridin-5-yl)-5-fluoro-3-(piperidin-4-yl)cinnoline]", "IC50": "≤ 100"}
{"smiles": "Cc1nc2c(C)cc(-c3cc(F)c4cc(C5C[C@@H](C)N(C)[C@@H](C)C5)nnc4c3)nc2o1", "note": "(stereo partly drawn) [Compound 226, 5-(5-fluoro-3-((2S,4R,6R)-1,2,6-trimethylpiperidin-4-yl)cinnolin-7-yl)-2,7-dimethyloxazolo[5,4-b]pyridine]", "IC50": "≤ 100"}
{"smiles": "Cn1cc2cc(-c3cc(F)c4nc(C5CCNCC5)nnc4c3)cc(F)c2n1", "note": "[Compound 32, 5-fluoro-7-(7-fluoro-2-methyl-2H-indazol-5-yl)-3-(piperidin-4-yl)-1,2,4-benzotriazine]", "IC50": "≤ 100"}
{"smiles": "Cc1cn2nc(-c3nnc4cc(C5CCNCC5)cc(F)c4n3)cc(C)c2n1", "note": "[Compound 57, 3-(2,8-dimethylimidazo[1,2-b]pyridazin-6-yl)-5-fluoro-7-(piperidin-4-yl)-1,2,4-benzotriazine]", "IC50": "≤ 100"}
{"smiles": "Cc1cn2nc(-c3nnc4cc(C5CCNCC5)ccc4n3)cc(C)c2n1", "note": "[Compound 44, 3-(2,8-dimethylimidazo[1,2-b]pyridazin-6-yl)-7-(piperidin-4-yl)-1,2,4-benzotriazine]", "IC50": "100 to 500"}
{"smiles": "Cc1cc(-c2ccc3nc(C4=CC(C)(C)NC(C)(C)C4)ccc3c2)cc2cn(C)nc12", "note": "[Compound 13, 6-(2,7-dimethyl-2H-indazol-5-yl)-2-(2,2,6,6-tetramethyl-1,2,3,6-tetrahydropyridin-4-yl)quinoline]", "IC50": "1000 to 3000"}
{"smiles": "CCOc1cc(-c2cc(F)c3nc(C4CCNCC4)nnc3c2)nn2cc(C)nc12", "note": "[Compound 59, 7-(8-ethoxy-2-methylimidazo[1,2-b]pyridazin-6-yl)-5-fluoro-3-(piperidin-4-yl)-1,2,4-benzotriazine]", "IC50": "≤ 100"}
{"smiles": "COCCNc1cc(-c2cc(F)c3nc(C4CCNCC4)ccc3c2)nn2cc(C)nc12", "note": "[Compound 54, 6-[8-fluoro-2-(piperidin-4-yl)quinolin-6-yl]-N-(2-methoxyethyl)-2-methylimidazo[1,2-b]pyridazin-8-amine]", "IC50": "100 to 500"}
{"smiles": "Cc1cn2nc(-c3cc(F)c4cc(N5CC6(CCNC6)C5)nnc4c3)cc(C)c2n1", "note": "[Compound 217, 3-(2,6-diazaspiro[3.4]octan-2-yl)-7-(2,8-dimethylimidazo[1,2-b]pyridazin-6-yl)-5-fluorocinnoline]", "IC50": "≤ 100"}
{"smiles": "Cc1cn2nc(-c3cc(F)c4cc(C5CCNCC5)nnc4c3)cc(CC#N)c2n1", "note": "[Compound 187, {6-[5-fluoro-3-(piperidin-4-yl)cinnolin-7-yl]-2-methylimidazo[1,2-b]pyridazin-8-yl}acetonitrile]", "IC50": "≤ 100"}
{"smiles": "CCc1cc(-c2cc(F)c3cc(C4CCN(C)CC4)nnc3c2)nn2cc(C)nc12", "note": "[Compound 122, 7-(8-ethyl-2-methylimidazo[1,2-b]pyridazin-6-yl)-5-fluoro-3-(1-methylpiperidin-4-yl)cinnoline]", "IC50": "≤ 100"}
{"smiles": "Cc1nc2c(C)cc(-c3cc(F)c4nc(C5CCNCC5)nnc4c3)cc2[nH]1", "note": "[Compound 63, 7-(2,4-dimethyl-1H-benzimidazol-6-yl)-5-fluoro-3-(piperidin-4-yl)-1,2,4-benzotriazine]", "IC50": "≤ 100"}
{"smiles": "Cc1cc(-c2cc(F)c3nc(C4CCNCC4)ncc3c2)cc2cn(C)nc12", "note": "[Compound 34, 6-(2,7-dimethyl-2H-indazol-5-yl)-8-fluoro-2-(piperidin-4-yl)quinazoline]", "IC50": "≤ 100"}
{"smiles": "Cn1cc2cc(-c3nnc4cc(C5CCNCC5)ccc4n3)cc(F)c2n1", "note": "[Compound 25, 3-(7-fluoro-2-methyl-2H-indazol-5-yl)-7-(piperidin-4-yl)-1,2,4-benzotriazine]", "IC50": "≤ 100"}
{"smiles": "Cc1cn2nc(-c3cc(F)c4cc(C5CCNCC5)ncc4c3)cc(C)c2n1", "note": "[Compound 72, 7-(2,8-dimethylimidazo[1,2-b]pyridazin-6-yl)-5-fluoro-3-(piperidin-4-yl)isoquinoline]", "IC50": "≤ 100"}
{"smiles": "Cc1cn2cc(-c3nnc4cc(C5CCNCC5)ccc4n3)cc(F)c2n1", "note": "[Compound 43, 3-(8-fluoro-2-methylimidazo[1,2-a]pyridin-6-yl)-7-(piperidin-4-yl)-1,2,4-benzotriazine]", "IC50": "≤ 100"}
{"smiles": "Cn1cc2cc(-c3cc4c(F)cc(C5=CCNCC5)cc4nn3)cc(F)c2n1", "note": "[Compound 134, 5-fluoro-3-(7-fluoro-2-methyl-2H-indazol-5-yl)-7-(1,2,3,6-tetrahydropyridin-4-yl)cinnoline]", "IC50": "≤ 100"}
{"smiles": "Cn1cc2cc(-c3cc4c(F)cc(C5CCNCC5)cc4nn3)cc(F)c2n1", "note": "[Compound 151, 5-fluoro-3-(7-fluoro-2-methyl-2H-indazol-5-yl)-7-(piperidin-4-yl)cinnoline]", "IC50": "≤ 100"}
{"smiles": "Cn1cc2cc(-c3ncc4cc(C5=CCNCC5)cc(F)c4n3)cc(F)c2n1", "note": "[Compound 165, 8-fluoro-2-(7-fluoro-2-methyl-2H-indazol-5-yl)-6-(1,2,3,6-tetrahydropyridin-4-yl)quinazoline]", "IC50": "≤ 100"}
{"smiles": "Cc1cn2nc(-c3cc(F)c4cc(C5CCNCC5)nnc4c3)cc(C)c2n1", "note": "[Compound 74, 7-(2,8-dimethylimidazo[1,2-b]pyridazin-6-yl)-5-fluoro-3-(piperidin-4-yl)cinnoline]", "IC50": "≤ 100"}
{"smiles": "CCN1CCC(c2cc3c(F)cc(-c4cc(C)c5nc(C)sc5n4)cc3nn2)CC1", "note": "[Compound 135, 7-(2,7-dimethyl[1,3]thiazolo[5,4-b]pyridin-5-yl)-3-(1-ethylpiperidin-4-yl)-5-fluorocinnoline]", "IC50": "≤ 100"}
{"smiles": "Cn1nc2cc(-c3cc4c(F)cc(C5=CCNCC5)cc4nn3)cc(F)c2n1", "note": "[Compound 171, 5-fluoro-3-(7-fluoro-2-methyl-2H-benzotriazol-5-yl)-7-(1,2,3,6-tetrahydropyridin-4-yl)cinnoline]", "IC50": "≤ 100"}
{"smiles": "Cc1cn2nc(-c3cc(F)c4cc(C5CCNCC5)nnc4c3)cc(C3CC3)c2n1", "note": "[Compound 112, 7-(8-cyclopropyl-2-methylimidazo[1,2-b]pyridazin-6-yl)-5-fluoro-3-(piperidin-4-yl)cinnoline]", "IC50": "≤ 100"}
{"smiles": "Cc1cn2nc(-c3cc(F)c4cc(C5CCNCC5)nnc4c3)cc(OCCCN(C)C)c2n1", "note": "[Compound 139, 3-({6-[5-fluoro-3-(piperidin-4-yl)cinnolin-7-yl]-2-methylimidazo[1,2-b]pyridazin-8-yl}oxy)-N,N-dimethylpropan-1-amine]", "IC50": "≤ 100"}
